Assay results as given in US6682896B1, “Peptides representing epitopic sites on r-IFN-β, antibodies thereto and uses thereof” (Schering Aktiengesellschaft, priority 1988, dated 2004).

Legend:
Settings in all cases: 50 μg peptide per well dried to well; goat anti-mouse/HRP, ABTS
neutralizing mAb A5 = assay: ELISA binding of mAb A5 to plate-dried synthetic peptides
Description: (§1) A series of enzyme-linked immunosorbent assays (ELISA) were run in which a panel of three neutralizing mab's, identified as A1, A5 and A7 (developed by […] Grossberg at the Medical College of Wisconsin) and a single non-neutralizing mAb, identified as B2b (received from Medical College of Wisconsin, […] and S. Grossberg), was assessed for binding to synthetic peptides IB, IC, IE, and a control. In each case, the peptide was dissolved in 0.05M Tris buffer, pH 9.5 and aliquoted in 100 μl volumes to wells of a microtiter plate (Corning) at a concentration of 50 μg peptide per well. The plate was placed in a vacuum dessicator overnight to dry the peptide to the well. Standard ELISA procedures were followed after the overnight coupling, i.e. common blocking steps, washes, incubation conditions and color development of the appropriate goat anti-mouse/horseradish peroxidase conjugate with ABTS substrate. […] The non neutralizing mAb B2b reacted with peptides IB and IC but not with IE.

neutralizing mAb A7 = assay: ELISA binding of mAb A7 to plate-dried synthetic peptides
Description: as §1

non-neutralizing mAb B2b = assay: ELISA binding of mAb B2b to plate-dried synthetic peptides
Description: as §1

Reaction (binding) of mAb A5 with peptide in ELISA (neutralizing mAb A5): preferential binding
Reaction (binding) of mAb A7 with peptide in ELISA (neutralizing mAb A7): virtually no activity
Reaction (binding) of non-neutralizing mAb B2b with peptide in ELISA (non-neutralizing mAb B2b): not with IE
Substance: H-IPEEIKQL-OH [peptide IE, NH2-Ile-Pro-Glu-Glu-Ile-Lys-Gln-Leu-COOH]
